Test system: Umbilical cord derived mesenchymal stem cells (UC-MSC)
Assay: Test 4: induction of oxidative stress resistance (Rotenone treatment, nucleus count)
Assay type: cell-based
Details: Rotenone 0 nM, 100 nM, 200 nM, 500 nM, 1 μM; after 48 hours; FIG. 11
Method: (UC-MSC; Umbilical Cord derived Mesenchymal Stem Cells Wharton's Jelly (HMSC-WJ), FC-0020, LIFELINE CELL TECHNOLOGY Co., Ltd.; UC-MSC; Umbilical Cord derived Mesenchymal Stem Cells ScienCell Research Laboratories, Inc; and Umbilical Cord derived Mesenchymal Stem Cells ATCC) were conditioned with a recommended medium of each entity at 37° C. under 5% of CO2, and they were exchanged with the recommended medium of each entity or the medium of Example 1 (0.3-1×10^5 cells/well; 6 well plate). The passage was carried out every 2 to 3 days and those cells were treated with Rotenone of the following concentrations (0 nM, 100 nM, 200 nM, 500 nM, 1 μM). After 48 hours, these cells were stained with Hoechest33258 and the number of nucleus was counted using ImageXpress (Molecular Devices, LLC.).

With C=C(C)[C@H]1Cc2c(ccc3c2O[C@@H]2COc4cc(OC)c(OC)cc4[C@@H]2C3=O)O1 [Rotenone] the “cell number of UC-MSC” value was “decreases in a concentration dependent manner”.

Reference: patent US20180066231A1, “MESENCHYMAL STEM CELL CULTURE MEDIUM, METHODS FOR CULTURING MESENCHYMAL STEM CELLS, AND MESENCHYMAL STEM CELLS” (ROHTO PHARMACEUTICAL CO., LTD., priority 2015, published 2018)
